Reference: patent publication US20060029548A1, “Methods of diagnosing, monitoring and treating pulmonary diseases” (priority 2004, published 2006)
Entries after “also recorded” stand apart in the source; their conditions may differ.

Experiments:
[1] = test system: human subjects (perception of dyspnoea); test: Borg score for dyspnoea before and after inhalation challenge; assay type: in vivo; set-up: key to ΔBorg (change in Borg score before and after challenge): Borg score after minus before challenge; 0–10 scale
Source text: The clinical study described in Examples 2-4 was randomized, double blind, crossover, and controlled. Each subject attended the laboratory on three occasions. Procedures on the initial screening visit included obtaining information about the study and a number of investigations in the following order: medical history, lung function, reversibility and skin prick testing. At visit 2 and 3, separated by 2-7 days, the subjects were subjected to either an ATP or AMP challenge in a randomized fashion such that, by the end of the study, each patient had been tested with both compounds. Before, immediately after, and 30 minutes after the challenge, lung function and Borg score for dyspnoea were determined, and symptoms other than dyspnoea were recorded.
The modified Borg scale used to quantitate dyspnoea in the clinical study described in Examples 2-4 was a category scale in which words describing degrees of breathlessness were anchored to numbers between 0 and 10. The subjects were asked to select a number whose corresponding words most appropriately described their perception of breathlessness. The change in dyspnoea was expressed as ΔBorg, which was the difference in Borg score before and after the challenge [Rutgers et al. (2000) Eur. Respir. J. 16:486-490; Burdon et al. (1982) Am. Rev. Respir. Dis. 126:825-828]. Terms and associated numbers used in assessing Borg score were as follows: 0, “nothing at all”; 0.5, “very, very slight”; 1, “very slight”; 2, “slight”; 3, “moderate”; 4, “somewhat severe”; 5, “severe”; 7, “very severe”; 9, “very, very severe (almost maximal)”; and 10, “maximal” [Burdon et al. (1982)].
For the tests described in Examples 2-4, ATP and AMP (Sigma, Gillingham, Dorset, England) were dissolved freshly in normal saline solution to produce a range of doubling concentrations from 0.227-929 umol/ml for ATP and from 0.138-1152 umol/ml for AMP and immediately used for bronchial challenge. The solutions were administered using a breath-activated dosimeter (Mefar, Bovezzo, Italy) with an output of 10 ul per inhalation [Prieto et al. (2003) Chest 123:993-997]. The subjects, while wearing a nose clip, inhaled (via a mouthpiece) five breaths of normal saline, followed by sequential doubling concentrations of either ATP or AMP from functional residual capacity to total lung capacity. FEV1 was measured from two minutes after the fifth inhalation of normal saline until there was a fall in FEV1 of ≧20% of its value recorded after saline inhalation or until maximal concentration of either ATP or AMP was inhaled. The provocative dose causing a 20% decrease in FEV1 (PD20) was calculated by interpolation of the logarithmic dose response curve.

[2] = test system: pulmonary RAR-containing afferent nerve fiber; test: Vagal activation experiments in dogs: action potentials in RAR-containing fibers; assay type: in vivo; conditions: anesthetized dog
Procedure: The experiments described in Example 5 were performed essentially as described in Pelleg et al. [(1996) J. Physiol. 490(1):265-275] and U.S. Pat. No. 5,874,420, both of which are incorporated herein by reference in their entirety. In brief, they were performed on anesthetized (sodium pentobarbitone, 30 mg kg^−1 plus 3 mg kg^−1 h^−1, intravenous) dogs artificially ventilated with room air using a respirator. Arterial blood pH, PO2, PCO2, body temperature were maintained as described in U.S. Pat. No. 5,874,420. A peripheral vein was cannulated for the administration of physiological saline solution and maintenance doses of anesthetic. Catheters were introduced via the femoral vein and left atrial appendage and positioned in the right atrium and left atrium for the administration of test solutions. The chest was opened by a longitudinal sternotomy. The right cervical vagosympathetic trunk was exposed by a midcervical longitudinal section of the skin and careful dissection of neck muscles and connective tissues. The edges of the cut skin were elevated and secured to create a trough which was filled with warm (about 37° C.) mineral oil. A section of the vagosympathetic trunk was placed on a small plate of black Perspex™ and fine branches were separated from the main bundle by careful dissection using microsurgical tools and a dissecting microscope (Model F212, Jenopik Jena, GmbH, Germany).
Extracellular neural action potentials were recorded using a custom-made bipolar electrode that contained two platinum-iridium wires (1.25 cm×0.0125 cm) connected to a high-impedence first-stage differential amplifier (model AC8331, CW, Inc., Ardmore, Pa.) via a shielded cable. The output of the first-stage amplifier was fed into a second-stage differential amplifier (model BMA-831/C, CWE, Inc.). Isolated fibers were laid on the pair of platinum-iridium wires. Vagal C fibers with chemosensitive endings have a sparse irregular discharge which is not associated with cardiac or respiratory cycles. Confirmation of fiber type was obtained by: first monitoring the response to capsaicin (10 microg kg^−1, intra-right atrial bolus); second, monitoring the response to mechanical stimulation of the lungs using gentle probing with forceps as well as inflation of the lungs to 2-3 times the tidal volume; and third, determining the speed of conduction using a stimulating electrode positioned distal to the initial recording site. Nerve fibers with RAR on their pulmonary endings, spontaneously fire a brief (i.e., short lasting) volley of action potentials associated with peak tracheal pressure during each respiratory cycle.
[…] Volume controls consisted of either 5 ml+5 ml or 1 ml+3 ml physiological saline. All injections were performed in the same mode by the same person. To exclude involvement of baroreceptors in the recorded neural activity, the latter was monitored before and after a bolus of nitroglycerine (1 mg; intravenous).
The procedure described in Example 1 was used to measure action potentials in dog pulmonary fibers with RAR on their terminals following administration of various agents. RAR activation generated a brief volley of action potentials associated with each respiratory cycle that was seen before as well as after administration of ATP (FIG. 7). […] Thus ATP modified the activity of the RAR-containing fiber manifested in their transient loss of the rapid adaptability characteristic.

SMILES: Nc1ncnc2c1ncn2[C@@H]1O[C@H](COP(=O)(O)OP(=O)(O)OP(=O)(O)O)[C@@H](O)[C@H]1O [ATP, adenosine 5′-triphosphate]
- ΔBorg (change in Borg score before and after challenge) ([1]; COPD): 2.6
- Borg score after challenge (at PD20) ([1]; COPD patients): 2.7
- Borg score after challenge ([1]; healthy smokers): 1.3
- Borg score after challenge (at PD20) ([1]; patients with asthma): 3.3
- ΔBorg (change in Borg score before and after challenge) ([1]; patients with asthma): 3.2
- Borg score after challenge ([1]; smokers at risk): 1.9
- desensitization on repeated administrations ([2]; RAR-containing fibers): not associated with desensitization
- effect on action potentials of RAR-containing fibers ([2]; rapid bolus, ATP 6 μmol/kg, capsaicin 10 ug kg−1, analogs 0.75 umol kg−1): activity of RAR-containing fibers was prolonged; also recorded: stimulated both the C fibers and RAR-containing fibers
